Assay results: ChEMBL document CHEMBL1201862, “PubChem BioAssay data set” (2004)
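Values below derive from 48-hour exposures of cells grown in 96-well plates, with endpoints linearly interpolated between the two concentrations bracketing the appropriate inhibition level. Abbreviation: GI50, concentration required for 50% inhibition of growth.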 Activity calls are given as the source filed them. Cut-off read from the data, not from the text of the source: active = GI50 up to about 1.1 µM and inactive = higher.

What was measured:
Experiment in all cases: NCI anticancer screen, dose series, 48 h
UACC-257 = test system: UACC-257
KM12 = test system: KM12
TK-10 = test system: TK-10
HOP-62 = test system: HOP-62
OVCAR-4 = test system: OVCAR-4
ACHN = test system: ACHN
HCC 2998 = test system: HCC 2998
SK-MEL-2 = test system: SK-MEL-2
LOX IMVI = test system: LOX IMVI
OVCAR-5 = test system: OVCAR-5
OVCAR-3 = test system: OVCAR-3
CCRF-CEM = test system: CCRF-CEM
SR = test system: SR
SNB-19 = test system: SNB-19
SK-OV-3 = test system: SK-OV-3

Measured: GI50

CC1=C(O)/C(=C/C(C)CCC/C(C)=C/C=C/C(C)CCCc2ccoc2)OC1=O (stereo unspecified)
inactive: UACC-257 21.7 µM | KM12 34.4 µM | TK-10 20.9 µM | HOP-62 18.5 µM | OVCAR-4 29.4 µM | ACHN 19.2 µM | HCC 2998 23 µM | SK-MEL-2 25.5 µM | LOX IMVI 34.2 µM | OVCAR-5 23.8 µM

Oc1ncnc2c1sc(=S)n2-c1ccccc1
inactive: OVCAR-3 > 100 µM | UACC-257 > 100 µM | CCRF-CEM > 100 µM | SR > 100 µM | KM12 > 100 µM | TK-10 > 100 µM | HOP-62 > 100 µM | OVCAR-4 > 100 µM | SNB-19 > 100 µM | ACHN > 100 µM | HCC 2998 > 100 µM | SK-MEL-2 > 100 µM | LOX IMVI > 100 µM | OVCAR-5 > 100 µM | SK-OV-3 > 100 µM

C[N+](C)(C)CC1CCCC(C[N+](C)(C)C)C1=NO (stereo unspecified)
inactive: OVCAR-3 > 100 µM | UACC-257 > 100 µM | SR > 100 µM | KM12 > 100 µM | TK-10 > 100 µM | OVCAR-4 > 100 µM | SNB-19 > 100 µM | ACHN > 100 µM | SK-MEL-2 > 100 µM | OVCAR-5 > 100 µM | SK-OV-3 > 100 µM

CN(C)c1n/c(=N/c2ccc3c(c2)OCO3)ss1
inactive: UACC-257 > 100 µM | CCRF-CEM 32.5 µM | KM12 51.5 µM | TK-10 > 100 µM | HOP-62 > 100 µM | OVCAR-4 > 100 µM | SNB-19 74.5 µM | ACHN 84.9 µM | HCC 2998 44.4 µM | SK-MEL-2 > 100 µM | LOX IMVI 64 µM | OVCAR-5 > 100 µM | SK-OV-3 > 100 µM

O=C(c1ccccc1)c1cn(/N=C\c2ccccc2)c(=O)nc1-c1ccccc1
inactive: OVCAR-3 > 100 µM | UACC-257 > 100 µM | CCRF-CEM 70 µM | KM12 > 100 µM | TK-10 > 100 µM | HOP-62 > 100 µM | OVCAR-4 > 100 µM | SNB-19 > 100 µM | ACHN > 100 µM | HCC 2998 > 100 µM | SK-MEL-2 > 100 µM | LOX IMVI > 100 µM | OVCAR-5 > 100 µM | SK-OV-3 > 100 µM

CC(=O)OC1CC2C(C)(C)OC(=O)CC(OC(C)=O)[C@]2(C)C2CCC3(C)C(=CCC3[C@H]3COC(=O)C3)[C@]12C (stereo partly specified)
inactive: OVCAR-3 94 µM | CCRF-CEM 23.5 µM | SR 24 µM | KM12 > 100 µM | TK-10 > 100 µM | HOP-62 > 100 µM | OVCAR-4 > 100 µM | SNB-19 > 100 µM | ACHN > 100 µM | HCC 2998 > 100 µM | SK-MEL-2 72.3 µM | LOX IMVI > 100 µM | OVCAR-5 > 100 µM | SK-OV-3 > 100 µM

CC(=O)C(CN(C)Cc1ccccc1)C(c1ccccc1)c1c(O)c2ccccc2oc1=O (stereo unspecified)
inactive: UACC-257 > 100 µM | CCRF-CEM > 100 µM | SR > 100 µM | KM12 > 100 µM | TK-10 > 100 µM | HOP-62 > 100 µM | OVCAR-4 > 100 µM | SNB-19 11 µM | ACHN > 100 µM | HCC 2998 > 100 µM | SK-MEL-2 > 100 µM | LOX IMVI > 100 µM | OVCAR-5 > 100 µM | SK-OV-3 > 100 µM

CC1C[C@H](C)CC(C(O)CC2CC(=O)N(Cc3ccccc3)C(=O)C2)C1O (stereo partly specified)
inactive: OVCAR-3 > 100 µM | UACC-257 > 100 µM | CCRF-CEM > 100 µM | SR > 100 µM | KM12 48.9 µM | TK-10 > 100 µM | HOP-62 > 100 µM | OVCAR-4 > 100 µM | SNB-19 > 100 µM | ACHN > 100 µM | HCC 2998 > 100 µM | LOX IMVI > 100 µM | OVCAR-5 > 100 µM | SK-OV-3 > 100 µM

CSc1nc(NC2OCC(OC(C)=O)C(OC(C)=O)C2OC(C)=O)c2c(n1)OCC2=O (stereo unspecified)
inactive: OVCAR-3 > 100 µM | UACC-257 > 100 µM | CCRF-CEM > 100 µM | KM12 > 100 µM | TK-10 > 100 µM | HOP-62 > 100 µM | SNB-19 > 100 µM | ACHN > 100 µM | HCC 2998 > 100 µM | SK-MEL-2 > 100 µM | LOX IMVI > 100 µM | OVCAR-5 > 100 µM | SK-OV-3 > 100 µM

Cc1cn2c(=O)c3ncn(C4OC(CO)C(O)C4O)c3n(C)c2n1 (stereo unspecified)
inactive: OVCAR-3 > 100 µM | UACC-257 > 100 µM | CCRF-CEM > 100 µM | KM12 > 100 µM | TK-10 > 100 µM | OVCAR-4 > 100 µM | SNB-19 > 100 µM | ACHN > 100 µM | HCC 2998 > 100 µM | SK-MEL-2 > 100 µM | LOX IMVI > 100 µM | OVCAR-5 > 100 µM | SK-OV-3 > 100 µM

CCn1c(SC(C)C(=O)c2c(C)n(C)n(-c3ccccc3)c2=O)nc2ccccc2c1=O (stereo unspecified)
inactive: OVCAR-3 > 100 µM | UACC-257 > 100 µM | CCRF-CEM > 100 µM | SR > 100 µM | KM12 > 100 µM | TK-10 > 100 µM | HOP-62 > 100 µM | OVCAR-4 > 100 µM | ACHN > 100 µM | SK-MEL-2 > 100 µM | LOX IMVI > 100 µM | OVCAR-5 > 100 µM | SK-OV-3 > 100 µM

Cc1ccc(/N=N/c2c(-c3ccccc3)nn(C(=O)CC(=O)Nc3ccc(Cl)cc3)c2-c2ccccc2)cc1
inactive: OVCAR-3 26.2 µM | UACC-257 > 100 µM | CCRF-CEM 18.6 µM | SR 12.3 µM | KM12 38.3 µM | HOP-62 33.8 µM | OVCAR-4 77.3 µM | SNB-19 49.7 µM | ACHN 79.6 µM | HCC 2998 56.1 µM | SK-MEL-2 81.8 µM | LOX IMVI 46.7 µM | OVCAR-5 48.6 µM | SK-OV-3 > 100 µM

Cc1cc(NS(=O)(=O)c2ccc(Nc3c4ccccc4nc4c(C(=O)N5CCN(CCO)CC5)ccc(Cl)c34)cc2)no1
inactive: OVCAR-3 > 100 µM | UACC-257 > 100 µM | CCRF-CEM 28.8 µM | KM12 > 100 µM | TK-10 > 100 µM | HOP-62 > 100 µM | OVCAR-4 > 100 µM | SNB-19 > 100 µM | HCC 2998 71.8 µM | SK-MEL-2 42.1 µM | OVCAR-5 > 100 µM | SK-OV-3 > 100 µM

NS(=O)(=O)c1ccc(NC(=O)Cc2nc3ccccc3s2)cc1
inactive: OVCAR-3 16.8 µM | UACC-257 15.8 µM | CCRF-CEM 13.4 µM | SR 20.1 µM | KM12 16.3 µM | TK-10 24.1 µM | HOP-62 22.3 µM | OVCAR-4 19.3 µM | SNB-19 23.5 µM | ACHN 15.5 µM | HCC 2998 19.5 µM | SK-MEL-2 14.9 µM | OVCAR-5 20.7 µM | SK-OV-3 25.7 µM

CN(C)CCCNc1ccc2ncn3c4ccccc4c(=O)c1c23
inactive: OVCAR-3 16 µM | UACC-257 14.6 µM | CCRF-CEM 4.39 µM | SR 2.94 µM | KM12 5.87 µM | TK-10 14.8 µM | HOP-62 33.6 µM | OVCAR-4 21.9 µM | SNB-19 20.3 µM | ACHN 4.81 µM | SK-MEL-2 13.6 µM | LOX IMVI 3.51 µM | OVCAR-5 10.7 µM | SK-OV-3 8.59 µM

CCOc1ccc(/N=C\c2ccc3cc(C)ccc3n2)cc1
inactive: OVCAR-3 33.1 µM | UACC-257 76 µM | CCRF-CEM 22.5 µM | KM12 37.1 µM | TK-10 79.3 µM | HOP-62 > 100 µM | OVCAR-4 75.3 µM | SNB-19 49 µM | ACHN 35.8 µM | HCC 2998 33.2 µM | SK-MEL-2 45.1 µM | LOX IMVI 30.6 µM | OVCAR-5 > 100 µM | SK-OV-3 > 100 µM

Cc1ccc(NC(=O)CC2C(=O)Nc3ccccc3[S+]2[O-])cc1C (stereo unspecified)
inactive: OVCAR-3 40.6 µM | UACC-257 > 100 µM | CCRF-CEM > 100 µM | SR 63.5 µM | TK-10 > 100 µM | OVCAR-4 16.4 µM | SNB-19 46 µM | ACHN 73.8 µM | HCC 2998 > 100 µM | SK-MEL-2 > 100 µM | LOX IMVI 48.6 µM | OVCAR-5 > 100 µM

O/N=C1/C(=C/c2ccc3c(c2)OCO3)CCCC1C(NO)c1ccc2c(c1)OCO2 (stereo unspecified)
inactive: OVCAR-3 14.6 µM | UACC-257 17.8 µM | CCRF-CEM 19.2 µM | KM12 22.7 µM | TK-10 26.1 µM | HOP-62 21.1 µM | OVCAR-4 24.6 µM | SNB-19 32.4 µM | ACHN 31.6 µM | HCC 2998 25 µM | SK-MEL-2 21.4 µM | SK-OV-3 48.2 µM

O=C(O)CN(c1ccccc1)S(=O)(=O)c1cccc([N+](=O)[O-])c1
inactive: OVCAR-3 > 100 µM | UACC-257 > 100 µM | CCRF-CEM > 100 µM | KM12 > 100 µM | TK-10 > 100 µM | OVCAR-4 > 100 µM | SNB-19 > 100 µM | ACHN > 100 µM | SK-MEL-2 > 100 µM | LOX IMVI > 100 µM | OVCAR-5 > 100 µM | SK-OV-3 > 100 µM

CCN(CC)[C@@H]1c2cc3c(cc2C(c2cc(OC)c(O)c(OC)c2)C2C(=O)CO[C@@H]21)OCO3 (stereo partly specified)
inactive: UACC-257 > 100 µM | CCRF-CEM > 100 µM | SR > 100 µM | KM12 > 100 µM | TK-10 > 100 µM | HOP-62 > 100 µM | OVCAR-4 > 100 µM | ACHN > 100 µM | HCC 2998 > 100 µM | SK-MEL-2 > 100 µM | LOX IMVI > 100 µM | OVCAR-5 > 100 µM | SK-OV-3 > 100 µM
